From patent US8207169B2, “Substituted [1,2,4]triazolo[4′,3′:1,6]pyrido[2,3-b]pyrazines of the formula D” (MSD K.K., priority 2008, dated 2012)

What was measured:
Akt1 kinase = target: T1, Akt1 kinase (Homo sapiens, UniProt P31749); test: Akt kinase assay (HTRF, GSK-derived biotinylated peptide substrate); type: biochemical; conditions: activated Akt1 kinase
T1 construct: a middle T tag was added to the 5′ end of the full length Akt1 gene; biotin tag (from pS2neo vector); made in house; host or cells: Drosophila S2 cells
Experimental: (§1) Activated Akt isoforms and pleckstrin homology domain deletion constructs were assayed utilizing a GSK-derived biotinylated peptide substrate. The extent of peptide phosphorylation was determined by Homogeneous Time Resolved Fluorescence (HTRF) using a lanthanide chelate(Lance)-coupled monoclonal antibody specific for the phosphopeptide in combination with a streptavidin-linked allophycocyanin (SA-APC) fluorophore which will bind to the biotin moiety on the peptide. When the Lance and APC are in proximity (i.e. bound to the same phosphopeptide molecule), a non-radiative energy transfer takes place from the Lance to the APC, followed by emission of light from APC at 665 nm.
(§2) Materials Required for the Assay:
(§3) A. Activated Akt isozyme or pleckstrin homology domain deleted construct
(§4) B. Akt peptide substrate: GSK3α (S21) Peptide #3928 biotin-GGRARTSSFAEPG (SEQ. ID. NO.:15), Macromolecular Resources.
(§5) C. Lance labeled anti-phospho GSK3α monoclonal antibody (Cell Signaling Technology, clone #27).
(§6) D. SA-APC (Prozyme catalog no. MS lot #896067).
(§7) E. Microfluor®B U Bottom Microtiter Plates (Dynex Technologies, Catalog no. 7205).
(§8) F. Discovery® HTRF Microplate Analyzer, Packard Instrument Company.
(§9) G. 100× Protease Inhibitor Cocktail (PIC): 1 mg/mL benzamidine, 0.5 mg/mL pepstatin, 0.5 mg/mL leupeptin, 0.5 mg/mL aprotinin.
(§10) H. 10× Assay Buffer: 500 mM HEPES, pH 7.5, 1% PEG, […], 1 mM EGTA, 1% BSA, 20 mM ∂-Glycerol phosphate.
(§11) I. Quench Buffer: 50 mM HEPES pH 7.3, 16.6 mM EDTA, 0.1% BSA, 0.1% Triton X-100, 0.17 nM Lance labeled monoclonal antibody clone #27, 0.0067 mg/mL SA-APC
(§12) J. ATP/MgCl2 working solution: 1× Assay buffer, 1 mM DTT, 1×PIC, 125 mM KCl, 5% Glycerol, 25 mM MgCl2, 375 μM ATP
(§13) K. Enzyme working solution: 1× Assay buffer, 1 mM DTT, 1×PIC, 5% Glycerol, active Akt. The final enzyme concentrations were selected so that the assay was in a linear response range.
(§14) L. Peptide working solution: 1× Assay buffer, 1 mM DTT, 1×PIC, 5% Glycerol, 2 μM GSK3 biotinylated peptide #3928
(§15) The reaction is assembled by adding […] of the ATP/MgCl2 working solution to the appropriate wells of a 96-well microtiter plate. Inhibitor or vehicle (1.0 μL) is added followed by 10 μL of peptide working solution. The reaction is started by adding 13 μl, of the enzyme working solution and mixing. The reaction is allowed to proceed for 50 min and then stopped by the addition of 60 μL, HTRF quench buffer. The stopped reactions were incubated at room temperature for at least 30 min and then read on the Discovery instrument.

Akt2 kinase = target: T2, Akt2 kinase (Homo sapiens, UniProt P31751); test: as above; type: biochemical; conditions: activated Akt2 kinase
T2 construct: a middle T tag was added to the 5′ end of the full length Akt2 using the PCR primer; biotin tag (from pS2neo vector); made in house; host or cells: Drosophila S2 cells
Experimental: as §1, §2, §3, §4, §5, §6, §7, §8, §9, §10, §11, §12, §13, §14, §15

T1 sequence (P31749 whole entry): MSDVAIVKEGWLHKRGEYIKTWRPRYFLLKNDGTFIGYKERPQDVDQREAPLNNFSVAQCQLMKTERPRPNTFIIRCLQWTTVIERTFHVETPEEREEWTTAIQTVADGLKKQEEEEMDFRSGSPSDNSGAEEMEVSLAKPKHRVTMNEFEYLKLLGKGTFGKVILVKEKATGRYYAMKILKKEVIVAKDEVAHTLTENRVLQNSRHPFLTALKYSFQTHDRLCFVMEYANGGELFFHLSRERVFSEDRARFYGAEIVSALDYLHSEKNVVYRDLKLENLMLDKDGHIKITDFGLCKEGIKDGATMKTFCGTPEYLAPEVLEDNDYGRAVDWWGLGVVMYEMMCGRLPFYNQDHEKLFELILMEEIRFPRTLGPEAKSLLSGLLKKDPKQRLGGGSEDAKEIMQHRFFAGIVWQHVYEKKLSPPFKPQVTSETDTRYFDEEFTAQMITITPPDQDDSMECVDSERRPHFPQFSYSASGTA
T2 sequence (P31751 whole entry): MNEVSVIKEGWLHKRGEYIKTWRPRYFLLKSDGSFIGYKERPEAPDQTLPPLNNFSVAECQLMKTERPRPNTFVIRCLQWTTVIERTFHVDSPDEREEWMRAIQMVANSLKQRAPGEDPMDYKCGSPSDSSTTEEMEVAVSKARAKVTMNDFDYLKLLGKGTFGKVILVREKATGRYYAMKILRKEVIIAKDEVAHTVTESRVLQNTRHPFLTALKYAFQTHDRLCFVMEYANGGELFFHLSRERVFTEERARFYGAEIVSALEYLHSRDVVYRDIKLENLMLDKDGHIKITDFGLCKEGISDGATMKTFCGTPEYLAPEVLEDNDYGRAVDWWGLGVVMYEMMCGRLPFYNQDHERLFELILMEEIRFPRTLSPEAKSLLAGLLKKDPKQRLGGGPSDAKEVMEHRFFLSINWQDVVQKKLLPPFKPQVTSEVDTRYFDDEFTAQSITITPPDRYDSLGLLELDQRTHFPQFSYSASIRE

Row | Structure (SMILES) | IC50 (Akt1 kinase) [nM] | IC50 (Akt2 kinase) [nM]
1 | NC1(c2ccc(-c3nc4ccn5c(-c6ncccn6)nnc5c4cc3-c3ccccc3)cc2)CC(F)(F)C1 [EXAMPLE 2-10, 3,3-difluoro-1-{4-[9-phenyl-3-(2-pyrimidinyl)[1,2,4]triazolo[3,4-f]-1,6-naphthyridin-8-yl]phenyl}cyclobutanamine] | 6 | 44.4
2 | N[C@]1(c2ccc(-c3nc4ccn5c(-c6ncccn6)nnc5c4cc3-c3ccccc3)cc2)C[C@](O)(C2CC2)C1 [EXAMPLE 2-14, trans-3-amino-1-cyclopropyl-3-{-4-[9-phenyl-3-(2-pyrimidinyl)-[1,2,4]triazolo[3,4-f]-1,6-naphthyridin-8-yl]phenyl}cyclobutanol] | 0.3 | 4

Second part, the molecule after the results:

Row | IC50 (Akt1 kinase) [nM] | IC50 (Akt2 kinase) [nM] | Structure (SMILES)
3 | 0.4 | 4 | C[C@]1(O)C[C@@](N)(c2ccc(-c3nc4ccc5nnc(-c6cccnc6)n5c4nc3-c3ccccc3)cc2)C1 [EXAMPLE 3-7, trans-3-amino-1-methyl-3-{4-[2-phenyl-9-(3-pyridinyl)[1,2,4]triazolo-[4′,3′:1,6]pyrido[2,3-b]pyrazin-3-yl]phenyl}cyclobutanol]
4 | 0.3 | 11 | N[C@]1(c2ccc(-c3nc4ccc5nnc(-c6ccc(O)cc6)n5c4nc3-c3ccccc3)cc2)C[C@](O)(C2CC2)C1 [EXAMPLE 3-14, 4-{3-[4-(trans-1-amino-3-cyclopropyl-3-hydroxycyclobutyl)phenyl]-2-phenyl[1,2,4]triazolo[4′,3′:1,6]pyrido[2,3-b]pyrazin-9-yl]phenol]
5 | 0.5 | 6.3 | NC1(c2ccc(-c3nc4ccc5nnc(CCC(F)(F)F)n5c4nc3-c3ccccc3)cc2)CC(O)(C2CC2)C1 (stereo not drawn) [EXAMPLE 3-20, trans-3-amino-1-cyclopropyl-3-{4-[2-phenyl-9-(3,3,3-trifluoropropyl)[1,2,4]triazolo[4′,3′:1,6]pyrido[2,3-b]pyrazin-3-yl]phenyl}cyclobutanol]
6 | 4.7 | 84.3 | Cc1nc(-c2nnc3c4cc(-c5ccccc5)c(-c5ccc(C6(N)CC(F)(F)C6)cc5)nc4ccn23)n[nH]1 [EXAMPLE 5-16, 3,3-difluoro-1-{4-[3-(5-methyl-1H-1,2,4-triazol-3-yl)-9-phenyl[1,2,4]triazolo[3,4-f]-1,6-naphthyridin-8-yl]phenyl}cyclobutanamine]
